Laboratory results: patent US11713318B2, “Short conjugated oligoelectrolytes and uses thereof” (The Regents Of The University Of California, priority 2018, dated 2023)

Assays:
[1] = test system: Hep G2 (ATCC HB-8065) cells; experiment: Cytotoxicity, MTT assay; assay type: cell-based; details: Homo sapiens, HepG2, 24 h, Hep G2; MTT, 24 hours incubation; read-out: IC50
Method: (§1) Before removing the frozen cell stocks from liquid nitrogen, culture medium was pre-warmed to 37° C. The frozen tube was then removed from liquid nitrogen and placed into a 37° C. water bath and shaken gently to thaw the cell stock as quickly as possible. A small portion of the pre-warmed culture medium was added to the cell solution. The cell suspension was then centrifuged at 1000 r/min for 3 minutes. The supernatant was discarded and the cells were resuspended in fresh culture medium.
(§2) NIH 3T3 (ATCC CRL-1658) and Hep G2 (ATCC HB-8065) cells were cultured with DMEM+10% FBS in 100 mm dishes. Cells were lifted for subculture or testing when confluence reached ˜60% by treating with 1× trypsin (incubated for 3 min at 37° C.). J774 (ATCC TIB-67) cells were cultured with DMEM+10% FBS in 100 mm dishes. Cells were lifted for subculture or testing when confluence reached ˜80% using a cell scraper. RAW264.7 (ATCC TIB-71) cells were cultured with DMEM+10% heat-inactivated FBS+1% pen/strep in T75 flasks. Cells were lifted for subculture or testing when confluence reached ˜80% using a cell scraper.
(§3) • 1. Cells were lifted and resuspended in culture medium. The number of cells in the cell suspension was determined using an auto-cell counter: 10 μL of the cell suspension was mixed with 10 μL 1× trypan blue (filtered with 0.2 μm PES filter) and the mixture was loaded onto a cell counting slide. Based on the concentration of viable cells, the cell suspension was further diluted to achieve the desired density. • 2. Cells were seeded in 96 well plates by adding 100 μL final cell suspension column-by-column using a multichannel pipette (5000 cells/well for NIH 3T3, 10000 cells/well for Hep G2, J774 and RAW264.7). The outer wells were block with PBS to reduce the effects of evaporation. One column was filled with only culture medium as a blank. Cells were incubated overnight before adding the test articles. • 3. Test articles were dissolved in 1×PBS (or DMSO) to obtain stocks solution. Stock solutions were pre-warmed before use. […] Serial dilutions (2-fold) of the 10× solutions were made in sterile culture tubes by diluting in 1×PBS (8 dilutions to yield 9 test concentrations). 900 μL of culture media was added to each tube to obtain final drug solution containing 10% PBS (or less than 1% DMSO) for each experimental group. • 4. The original culture medium was gently removed from the 96-well plates using a pipette. 100 μL of the test article solutions prepared in Step 3 were added to rows 2-7 of each column to obtain six replicates for each concentration. Plates were then incubated for 24 hours. • 5. MTT solutions were prepared by dissolving commercial MTT powder in 1×PBS to a concentration of 5 mg/mL. After passing through a 0.22 μm PES filter, the MTT solution was divided into 1 mL portions in sterile centrifuge tubes and stored at −20° C. • 6. MTT stock solutions were removed from the freezer to thaw at room temperature. Before adding MTT solutions, cell cultures were visually inspected and imaged using a microscope (to use as a comparison with MTT results). 10 μL of the 5 mg/mL MTT solution was added to each well and the plate was incubated for 4 hours. • 7. After 4 h incubation, the culture medium/MT solution was removed gently using a pipette. 100 μL of DMSO was added to each well using a multichannel pipette. The 96-well plates were analyzed in a plate reader using the following method: shake for 5 minutes, wait for 30 seconds, and measure absorbance at 570 nm. • 8. Data processing: The average of background Abg was calculated from the blank column. All other data was first treated by subtracting Abg. The average A. and standard deviation Se of each experimental group and the average Ac and standard deviation Sc for control group (with pure culture medium incubation) were then calculated. The cell viability was determined as Ae/Ac×100% and corresponding error as Se/Ae×100%. Significant outliers in any experimental or control group were removed. […]

[2] = Solubility in aqueous media; assay type: physicochemical; details: reason why efficacy could not be detected
[3] = test system: S. epidermidis (ATCC 14990); experiment: MIC broth microdilution method, Table 3; details: S. epidermidis (+); BHI medium; less than 10% relative growth
J774 (ATCC TIB-67) cells = experiment: Cytotoxicity, MTT assay; assay type: cell-based
Method: as §1, §2, §3

[4] = test system: NIH 3T3 (ATCC CRL-1658) cells; experiment: Cytotoxicity, MTT assay; assay type: cell-based; details: NIH 3T3
Method: as §1, §2, §3

[5] = test system: primary human hepatocytes; experiment: Cytotoxicity tested by Eurofins Pharma Discovery Services; assay type: cell-based
[6] = test system: RAW264.7 (ATCC TIB-71) cells; experiment: Cytotoxicity, MTT assay; assay type: cell-based, murine; details: RAW 264.7
Method: as §1, §2
• 1. Cells were lifted and resuspended in culture medium. The number of cells in the cell suspension was determined using an auto-cell counter: 10 μL of the cell suspension was mixed with 10 μL 1× trypan blue (filtered with 0.2 μm PES filter) and the mixture was loaded onto a cell counting slide. Based on the concentration of viable cells, the cell suspension was further diluted to achieve the desired density. • 2. […] The 96-well plates were analyzed in a plate reader using the following method: shake for 5 minutes, wait for 30 seconds, and measure absorbance at 570 nm. • 8. Data processing: The average of background Abg was calculated from the blank column. […] The average A. and standard deviation Se of each experimental group and the average Ac and standard deviation Sc for control group (with pure culture medium incubation) were then calculated. The cell viability was determined as Ae/Ac×100% and corresponding error as Se/Ae×100%. […]

HRPTEpiC = experiment: Cytotoxicity tested by Eurofins Pharma Discovery Services; assay type: cell-based; details: data provided by Eurofins
[7] = test system: K. aerogenes (ATCC 13048); experiment: MIC broth microdilution method, Table 3; details: K. aerogenes (−); LB medium; less than 10% relative growth
Hep G2 cells = experiment: Cytotoxicity tested by Eurofins Pharma Discovery Services; assay type: cell-based
E. coli K12 (ATCC 47076) = experiment: MIC broth microdilution method, Table 3; details: E. coli K12 (−); LB medium; less than 10% relative growth
[8] = at the concentration given as IC50 bound

solubility [2] | Compound | IC50 [1] [µg/mL] | MIC [3] [µg/mL] | IC50 (J774 (ATCC TIB-67) cells; MTT, 24 hours incubation) [µg/mL] | cell viability at the highest or lowest test concentration (J774 (ATCC TIB-67) cells; [8]) | IC50 ([4]; MTT, 24 hours incubation) [µg/mL] | cell viability at the highest or lowest test concentration [4, 8] | cell viability at the highest or lowest test concentration ([5]; Eurofins, at the concentration given as IC50 bound) | IC50 ([5]; data provided by Eurofins) [µg/mL] | IC50 ([6]; MTT, 24 hours incubation) [µg/mL] | cell viability at the highest or lowest test concentration [6, 8] | IC50 (HRPTEpiC) [µg/mL] | MIC [7] [µg/mL] | cell viability at the highest or lowest test concentration (Hep G2 cells; Hep G2, Eurofins, at the concentration given as IC50 bound) | IC50 (Hep G2 cells; Hep G2, data provided by Eurofins) [µg/mL] | MIC (E. coli K12 (ATCC 47076)) [µg/mL]
low solubility | CC(C)(C)c1cc[n+](CCCCCCOc2cc(/C=C/c3cc(OCCCCCC[n+]4ccc(C(C)(C)C)cc4)cc(OCCCCCC[n+]4ccc(C(C)(C)C)cc4)c3)cc(OCCCCCC[n+]3ccc(C(C)(C)C)cc3)c2)cc1.[I-].[I-].[I-].[I-] [Formula D] | 20.7 | – | – | – | – | – | – | – | – | – | – | – | – | – | –
– | Colistin [reference compound] | – | >64 | >128 | (115%) | >128 | (104%) | (101%) | >324 | >20 | (109%) | 215 | 2 | (100%) | >324 | 1
